Measured values reported in ChEMBL document CHEMBL1201862, “PubChem BioAssay data set” (2004).
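Following 48 hours of exposure in 96-well plates, responses at five concentrations were used to interpolate endpoints linearly. Abbreviation: GI50, concentration required for 50% inhibition of growth.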 Activity calls are given as the source filed them. Cut-off read from the data, not from the text of the source: active = GI50 up to about 1.1 µM and inactive = higher.

Legend:
Experiment in all cases: NCI-60 cell line screen, 48 h
SW-620 = tested on: SW-620
SNB-19 = tested on: SNB-19
SF-295 = tested on: SF-295
MDA-N = tested on: MDA-N
SK-MEL-2 = tested on: SK-MEL-2
PC-3 = tested on: PC-3
CAKI-1 = tested on: CAKI-1
NCI/ADR-RES = tested on: NCI/ADR-RES
OVCAR-3 = tested on: OVCAR-3
LOX IMVI = tested on: LOX IMVI
NCI-H460 = tested on: NCI-H460
OVCAR-4 = tested on: OVCAR-4
BT-549 = tested on: BT-549
SN12C = tested on: SN12C
SF-268 = tested on: SF-268
MDA-MB-435 = tested on: MDA-MB-435
ACHN = tested on: ACHN
A498 = tested on: A498
TK-10 = tested on: TK-10
OVCAR-8 = tested on: OVCAR-8
EKVX = tested on: EKVX
MDA-MB-231 = tested on: MDA-MB-231
SNB-75 = tested on: SNB-75
MOLT-4 = tested on: MOLT-4
UACC-257 = tested on: UACC-257
HCT-116 = tested on: HCT-116
HT-29 = tested on: HT-29
T47D = tested on: T47D
SK-MEL-5 = tested on: SK-MEL-5
SK-OV-3 = tested on: SK-OV-3
COLO 205 = tested on: COLO 205
SR = tested on: SR
IGROV-1 = tested on: IGROV-1
786-0 = tested on: 786-0
RXF 393 = tested on: RXF 393
DU-145 = tested on: DU-145
RPMI-8226 = tested on: RPMI-8226
NCI-H226 = tested on: NCI-H226
SF-539 = tested on: SF-539
A549 = tested on: A549
K562 = tested on: K562
HL-60 = tested on: HL-60
SK-MEL-28 = tested on: SK-MEL-28
Malme-3M = tested on: Malme-3M
UO-31 = tested on: UO-31
M14 = tested on: M14
U-251 = tested on: U-251
KM12 = tested on: KM12
Hs-578T = tested on: Hs-578T
NCI-H522 = tested on: NCI-H522
CCRF-CEM = tested on: CCRF-CEM
HCC 2998 = tested on: HCC 2998
NCI-H23 = tested on: NCI-H23
HOP-62 = tested on: HOP-62
HCT-15 = tested on: HCT-15
MCF7 = tested on: MCF7
HOP-92 = tested on: HOP-92
OVCAR-5 = tested on: OVCAR-5
UACC-62 = tested on: UACC-62

`COc1cc2cc(C(=O)Nc3cc4n(n3)-c3ccccc3C4)[nH]c2c(OC)c1OC` was tested, and the GI50 (SW-620) was 7080 nM (inactive), the GI50 (SNB-19) was 9480 nM (inactive) and the GI50 (SF-295) was 3400 nM (inactive). For the same compound, the GI50 (MDA-N) was 2350 nM (inactive), the GI50 (SK-MEL-2) was 2300 nM (inactive) and the GI50 (PC-3) was 2710 nM (inactive). For the same compound, the GI50 (CAKI-1) was 1720 nM (inactive), the GI50 (NCI/ADR-RES) was 1250 nM (inactive) and the GI50 (OVCAR-3) was 2190 nM (inactive). For the same compound, the GI50 (LOX IMVI) was 4680 nM (inactive), the GI50 (NCI-H460) was 1640 nM (inactive) and the GI50 (OVCAR-4) was 1240 nM (inactive). For the same compound, the GI50 (BT-549) was 1190 nM (inactive), the GI50 (SN12C) was 8790 nM (inactive) and the GI50 (SF-268) was 6190 nM (inactive). The GI50 (MDA-MB-435) was 1440 nM (inactive), the GI50 (ACHN) was 4720 nM (inactive) and the GI50 (A498) was 23400 nM (inactive). For the same compound, the GI50 (TK-10) was 1850 nM (inactive), the GI50 (OVCAR-8) was 1260 nM (inactive) and the GI50 (EKVX) was 2170 nM (inactive). The GI50 (MDA-MB-231) was 8040 nM (inactive), the GI50 (SNB-75) was 5830 nM (inactive) and the GI50 (MOLT-4) was 1030 nM (active). For the same compound, the GI50 (UACC-257) was 2900 nM (inactive), the GI50 (HCT-116) was 2730 nM (inactive) and the GI50 (HT-29) was 11900 nM (inactive). The GI50 (T47D) was 883 nM (active), the GI50 (SK-MEL-5) was 1410 nM (inactive) and the GI50 (SK-OV-3) was 6250 nM (inactive). The GI50 (COLO 205) was 3060 nM (inactive), the GI50 (SR) was 2260 nM (inactive) and the GI50 (IGROV-1) was 2730 nM (inactive). For the same compound, the GI50 (786-0) was 8390 nM (inactive), the GI50 (RXF 393) was 30100 nM (inactive) and the GI50 (DU-145) was 6730 nM (inactive). The GI50 (RPMI-8226) was 1060 nM (active), the GI50 (NCI-H226) was 1220 nM (inactive) and the GI50 (SF-539) was 7080 nM (inactive). The GI50 (A549) was 1810 nM (inactive), the GI50 (K562) was 3360 nM (inactive) and the GI50 (HL-60) was 2250 nM (inactive). The GI50 (SK-MEL-28) was 3720 nM (inactive), the GI50 (Malme-3M) was 1290 nM (inactive) and the GI50 (UO-31) was 1970 nM (inactive). The GI50 (M14) was 2000 nM (inactive), the GI50 (U-251) was 8040 nM (inactive) and the GI50 (KM12) was 1850 nM (inactive). The GI50 (Hs-578T) was 2980 nM (inactive), the GI50 (NCI-H522) was 1080 nM (active) and the GI50 (CCRF-CEM) was 1380 nM (inactive). The GI50 (HCC 2998) was 10400 nM (inactive), the GI50 (NCI-H23) was 2750 nM (inactive) and the GI50 (HOP-62) was 2000 nM (inactive). The GI50 (HCT-15) was 2520 nM, the GI50 (MCF7) was 2580 nM (inactive) and the GI50 (HOP-92) was 2180 nM (inactive). For the same compound, the GI50 (OVCAR-5) was 8930 nM (inactive).
With `CCOC(=O)Nc1cc2c(c(N)n1)N=C(c1ccc(Cl)cc1Cl)CN2` the GI50 (SW-620) was < 19.4 nM (active), the GI50 (SNB-19) was 19 nM (active) and the GI50 (SF-295) was 11.2 nM (active). The GI50 (MDA-N) was < 10 nM (active), the GI50 (SK-MEL-2) was < 10 nM (active) and the GI50 (PC-3) was < 12.9 nM (active). For the same compound, the GI50 (CAKI-1) was 38.3 nM (active), the GI50 (NCI/ADR-RES) was < 15.4 nM (active) and the GI50 (OVCAR-3) was 10.9 nM (active). The GI50 (LOX IMVI) was < 19.5 nM (active), the GI50 (NCI-H460) was < 15.4 nM (active) and the GI50 (OVCAR-4) was 14300 nM (inactive). For the same compound, the GI50 (BT-549) was 791 nM (active), the GI50 (SN12C) was 80.5 nM (active) and the GI50 (SF-268) was 84.5 nM (active). For the same compound, the GI50 (MDA-MB-435) was < 10 nM (active), the GI50 (ACHN) was 53.5 nM (active) and the GI50 (A498) was 2680 nM (inactive). The GI50 (TK-10) was 3780 nM (inactive), the GI50 (OVCAR-8) was 27.6 nM (active) and the GI50 (EKVX) was 1630 nM (inactive). For the same compound, the GI50 (MDA-MB-231) was 44.2 nM (active), the GI50 (SNB-75) was < 10 nM (active) and the GI50 (MOLT-4) was < 22.8 nM (active). The GI50 (UACC-257) was 20800 nM (inactive), the GI50 (HCT-116) was < 10 nM (active) and the GI50 (HT-29) was < 18.1 nM (active). The GI50 (T47D) was 15600 nM (inactive), the GI50 (SK-MEL-5) was < 12.4 nM (active) and the GI50 (SK-OV-3) was 509 nM (active). For the same compound, the GI50 (COLO 205) was 42.5 nM (active), the GI50 (SR) was < 10 nM (active) and the GI50 (IGROV-1) was 292 nM (active). For the same compound, the GI50 (786-0) was < 21.7 nM (active), the GI50 (RXF 393) was < 10 nM (active) and the GI50 (DU-145) was < 19.1 nM (active). For the same compound, the GI50 (RPMI-8226) was < 10 nM (active), the GI50 (NCI-H226) was 31.4 nM (active) and the GI50 (SF-539) was < 17.3 nM (active). For the same compound, the GI50 (A549) was < 19.1 nM (active), the GI50 (K562) was < 10 nM (active) and the GI50 (HL-60) was 13.2 nM (active). For the same compound, the GI50 (Malme-3M) was < 17.8 nM (active), the GI50 (UO-31) was 52 nM (active) and the GI50 (M14) was 76.6 nM (active). The GI50 (U-251) was < 19 nM (active), the GI50 (UACC-62) was < 10.5 nM (active) and the GI50 (KM12) was < 17.4 nM (active). The GI50 (Hs-578T) was < 14.3 nM (active), the GI50 (NCI-H522) was < 21.3 nM (active) and the GI50 (CCRF-CEM) was < 15.5 nM (active). The GI50 (HCC 2998) was 99.5 nM (active), the GI50 (NCI-H23) was 83.4 nM (active) and the GI50 (HOP-62) was < 18.9 nM (active). For the same compound, the GI50 (HCT-15) was less than 22.9 nM, the GI50 (MCF7) was 132 nM (active) and the GI50 (HOP-92) was 17300 nM (inactive). The GI50 (OVCAR-5) was 39.2 nM (active).
